Values after ≈ are worked out from the molar mass of the structure shown.
Columns and labels:
[1] = oral; patients with severe acne; cited from earlier work
[2] = cited from earlier work
[3] = Solubility studies for isotretinoin using non-aqueous solvents; format: physicochemical; conditions: organic solvent or mixture
Procedure: Solubility studies for isotretinoin were carried out using non-aqueous solvents as mentioned in table 1.

solubility ([3]; solvent Acetone): 30 mg/mL (≈ 99.9 mM)
solubility ([3]; solvent Dichloromethane): 12 mg/mL (≈ 39.9 mM)
solubility ([3]; solvent Ethanol): 10 mg/mL (≈ 33.3 mM)
solubility ([3]; solvent Isopropyl alcohol): 12 mg/mL (≈ 39.9 mM)
solubility ([3]; solvent Methanol): 10 mg/mL (≈ 33.3 mM)
Compound: CC1=C(/C=C/C(C)=C/C=C/C(C)=C\C(=O)O)C(C)(C)CCC1 [isotretinoin, (2Z,4E,6E,8E)-3,7-dimethyl-9-(2,6,6-trimethylcyclohex-1-en-1-yl)nona-2,4,6,8-tetraenoic acid]
long-term remission, share of patients [1]: about 80%
water solubility [2]: very low water solubility

Reference: US10517846B2, “Pharmaceutical compositions for treating acne” (Dr. Reddy's Laboratories Ltd., priority 2016, dated 2019)
